Test results taken from article PMC3871529, “At a Supra-Physiological Concentration, Human Sexual Hormones Act as Quorum-Sensing Inhibitors” (PLoS ONE, 2013).
Converted amounts (≈) assume the structure as drawn. Like-named read-outs stand apart in the source and are kept apart here.

Experiments:
[1] = system: A. tumefaciens NT1(pZLR4) traG-lacZ reporter fusion; assay: QSI activity on A. tumefaciens AHL-bioindicator (traG-lacZ β-galactosidase); format: cell-based, Agrobacterium tumefaciens; settings: for QSI hit in library screening: second screening: compounds at 5 µg/ml, C8-HSL 10 nM, A. tumefaciens biosensor; for inhibition at 100 µg/mL: Agrobacterium tumefaciens, read-out: inhibition (%) at 100 µg/ml
Protocol: Two bacterial QS-signal biosensors were used. Chromobacterium violaceum CV026 [41] was grown in Luria-Bertani modified (LBm) medium, in which the NaCl concentration was 5 g/l instead of 10 g/l. Agrobacterium tumefaciens NT1(pZLR4) was grown in AB minimal medium supplemented with mannitol (0.2%). After supplementation with appropriate AHL, each of the QS-biosensors expresses a reporting activity, which is the production of the pigment violacein in C. violaceum CV026 and that of β-galactosidase from the transcriptional fusion traG::lacZ in A. tumefaciens NT1(pZLR4).
When the screening was performed, the chemical library of the Institut de Chimie des Substances Naturelles (ICSN, Gif-sur-Yvette, France) contained more than 3500 synthetic and natural compounds, which were individually dissolved in dimethylsulfoxide (DMSO) at 1mg/ml and stored in 96 microwell plates. A first screening was performed by mixing biosensor CV026 with the AHL hexanoylhomoserine lactone (C6-HSL) at 0.5 µM and the tested compounds at 50 µg/ml. Final volume was adjusted to 100 µl with a synthetic medium (10% LBm and 0.4% sucrose). After 24 hours of incubation at 30°C, the presence or absence of violacein pigment was quoted by visual reading. […] Final volume was adjusted to 100 µl by the addition of AB minimal medium supplemented with mannitol (0.2%) and TY medium (10%). After 4 hours of incubation at 30°C, β-galactosidase activity was measured in A. tumefaciens cultures as previously described. In the two screenings, 4-nitropyridine-N-oxide (4-NPO) was used as a QSI reference. […]

[2] = system: Agrobacterium biosensor cells; assay: Minimal inhibitory concentration (MIC); format: cell-based, Agrobacterium tumefaciens; settings: 10^5 CFU/ml, 36 h at 30°C
Protocol: (§1) Aside from the effect of QSI on QS regulation, the toxicity of these compounds was tested on bacterial cells by measuring two parameters: the minimal inhibitory concentration (MIC) and minimal bactericidal concentration (MBC). MIC, which is the lowest concentration of QSI (µg/ml) inhibiting any visible culture after 36 h of incubation at 30°C, was estimated by culturing 10^5 CFU/ml of the Agrobacterium biosensor cells in the presence of different concentrations of the QSI. MBC, which is the lowest concentration of QSI (µg/ml) that results in a 99.9% reduction of the initial bacterial population (10^5 CFU/ml) after 36 h of incubation at 30°C in the presence of different concentrations of QSI, was estimated by plating 100 µL of the Agrobacterium cultures on agar LBm plates. After an incubation of 48 h at 30°C, CFU were counted and the MBC values were calculated.

[3] = system: Agrobacterium biosensor cells; assay: Minimal bactericidal concentration (MBC); format: cell-based, Agrobacterium tumefaciens; settings: Agrobacterium; 99.9% reduction of 10^5 CFU/ml after 36 h at 30°C; read-out: MBC
Protocol: as §1

[4] = system: QS-regulated Ti-plasmid transfer in A. tumefaciens; assay: QS-regulated Ti-plasmid transfer (conjugation) assay; format: cell-based, Agrobacterium tumefaciens; settings: QSI at 0.1 mg/ml, OC8-HSL 500 pM, 72 h at 24°C
Protocol: Figure 4 In vitro Ti plasmid transfer frequency in Agrobacterium. The Ti plasmid transfer frequencies were measured in the presence of QSI (A) and the four 1248-diastereoisomeres (B) at 0.1 mg/ml. Histograms represent the cell density of transconjugants (CFU/ml), while black diamonds and squares, those of the donor and recipient strains, respectively. Measurements were performed in quadruplicate and the experiment was repeated twice. The cell densities of transconjugants in the presence of QSI were compared to that of the control in the presence of DMSO with a Mann and Whitney test (α = 0.05). Statistically different values are noted by asterisks.
In A. tumefaciens, the transfer of the Ti-plasmid from a donor cell to a recipient one is controlled by QS. QSI were evaluated for their capacity to reduce plasmid transfer frequency in Agrobacterium. In the plasmid transfer assay, two modified Agrobacterium strains were used: a Ti-plasmid donor, which requires exogenous AHL to transfer a kanamycin-resistant (Km^r) Ti-plasmid, and a rifampicin-resistant (Rif^r) recipient strain, which is free of Ti-plasmid. Overnight cultures of the donor and recipient strains were mixed with 500 pM of oxo-octanoylhomoserine lactone (OC8-HSL) and 0.1 mg/ml of QSI in LBm medium. Each combination was repeated 4 times in microwell plates.

P. aeruginosa = assay: Growth kinetics of P. aeruginosa in the presence of QSIs; format: cell-based, Pseudomonas aeruginosa; settings: QSI at 0.5 mg/ml, OD600 and CFU at 8 and 18 hour
Protocol: (§2) Figure 5 QSIs modulated QS-signal accumulation in P. aeruginosa. Growth kinetics (n = 6) of P. aeruginosa was measured (OD600) in the presence of the QSIs (estradiol, estrone, estriol, hordenine and 4-NPO) at 0.5 mg/ml using DMSO as a negative control. Cell counts were assessed (CFU/ml) at 8- and 18-hour, and C4-HSL and OC12-HSL concentration (µM) were determined in the bacterial cultures at 18-hour. Statistically different values (Student's t test with α = 0.01) are noted by asterisks.
(§3) QS gene transcription in P. aeruginosa PAO1 was monitored using PAO1 strains carrying various gene promoters fused to a lacZ reporter gene, as described in Vandeputte et al., 2010 and Table 1. PAO1 reporter strains were prepared according to Vandeputte et al.. Briefly, 18-hours-old liquid cultures (50 µl) were diluted in order to obtain a starting OD600 nm comprised between 0.02 and 0.03 in fresh LB medium supplemented with 50 mM MOPS pH 7.0 (1 ml), carbenicillin (300 µg/ml) and 10 µl of the QSIs to be tested (OD were measured using a SpectraMax M2 device from Molecular Devices). Test and control QSIs were diluted in 100% DMSO (resulting after addition to the growth medium in a 1% final concentration of DMSO). Cultures were incubated for 18 hours at 37°C with agitation. After incubation, cell densities were assessed spectrophotometrically (OD600 nm) and β-galactosidase assays were performed using the substrate o-nitrophenyl-β-D-galactopyranoside as described previously, [29]. Promoterless-lacZ fusions were used as controls. AHLs were quantified as described in Vandeputte et al.. All tests were performed in quintuplicates and three biological repetitions. The statistical significance of each test was evaluated by conducting Student's t tests and two-way ANOVA combined with the Tukey post-analysis test using the GraphPad Prism software and p values≤0.01 were considered significant.

[5] = system: QS-signal accumulation in P. aeruginosa; assay: AHL (C4-HSL, OC12-HSL) quantification in P. aeruginosa cultures by mass spectrometry; format: cell-based, Pseudomonas aeruginosa; settings: QSI at 0.5 mg/ml, 18-hour
Protocol: as §2, §3

| SMILES | QSI hit in library screening [1] | MIC ([2]; Agrobacterium, read-out: MIC) [µg/mL] | MBC [3] [µg/mL] | inhibition at 100 µg/mL [1] [%] | effect on Ti plasmid transfer frequency (words) [4] | MIC [2] | decrease of plasmid transfer efficiency [4] [fold] | effect on growth of P. aeruginosa (P. aeruginosa) | C4-HSL concentration in cell cultures [5] | OC12-HSL concentration in cell cultures [5] |
| --- | --- | --- | --- | --- | --- | --- | --- | --- | --- | --- |
| CC(NCC1Cc2ccccc2N1)c1cccc2ccccc12 (stereo not drawn) [Compound 1248] | hits | > 100 | > 100 |  |  |  |  |  |  |  |
| COc1nc([N+](=O)[O-])nn1[C@H]1C[C@H](O)[C@@H](CO)O1 [Compound 1102] | hits | > 100 | > 100 | 0 | significantly reduce the plasmid transfer frequency by one order of magnitude |  |  |  |  |  |
| CC/C=C\C[C@H]1C(=O)CC[C@@H]1CC(=O)O [Jasmonic acid, jasmonic acid, reference compound] |  | > 100 | > 100 |  |  |  |  |  |  |  |
| CCC12CCCN3CCC4(C(=C(C(=O)OC)C1)Nc1ccccc14)C32 (stereo not drawn) [Compound 14] | hits | > 100 | > 100 | 0 |  |  |  |  |  |  |
| Cc1ccc(S(=O)(=O)CCC(=O)c2ccccc2)cc1 [Compound 1577] | hits | 3 (≈ 10.4 µM) | 25 (≈ 86.7 µM) |  | significantly reduce the plasmid transfer frequency by one order of magnitude |  |  |  |  |  |
| CC1C2CCC3C4CC=C5CC(N)CCC5(C)C4CCC32CN1C.Cl (stereo not drawn) [Compound 283, 2,3,11a-Trimethyl-2,3,3a,4,5,5a,5b,6,8,9,10,11,11a,11b,12,13-hexadecahydro-1H-2-aza-pentaleno[1,6a-a]phenanthren-9-ylamine hydrochloride] | hits | > 100 | > 100 |  |  |  |  |  |  |  |
| CC(C)CCC[C@@H](C)[C@H]1CCC2C3CCC4CC(=O)CC[C@]4(C)C3CC[C@@]21C (stereo partly drawn) [Compound 1868] | hits | 12.5 (≈ 32.3 µM) | > 100 | 34 |  | 12,5 µg/ml |  |  |  |  |
| C[C@H](NC[C@@H]1Cc2ccccc2N1)c1cccc2ccccc12 [(S,S)-1248, (S)-N-((S)-indolin-2-ylmethyl)-1-(naphthalen-1-yl)ethanamine] |  | 100 (≈ 331 µM) | > 100 |  |  |  |  |  |  |  |
| CN1CCc2c([nH]c3ccccc23)C1 [Compound 3492] | hits | > 100 | > 100 |  |  |  |  |  |  |  |
| Cc1cn(COCCSc2ccccc2)c(=O)[nH]c1=O [Compound 1949, 5-Methyl-1-(2-phenylsulfanyl-ethoxymethyl)-1H-pyrimidine-2,4-dione] | hits | > 100 | > 100 | 38 |  |  |  |  |  |  |
| CC(C)CCC[C@@H](C)[C@H]1CCC2C3CC=C4C[C@@H](Cl)CC[C@]4(C)C3CC[C@@]21C (stereo partly drawn) [Compound 1099] | hits | 100 (≈ 247 µM) | > 100 |  | significantly reduce the plasmid transfer frequency by one order of magnitude |  |  |  |  |  |
| C[C@@H](NC[C@@H]1Cc2ccccc2N1)c1cccc2ccccc12 [(S,R)-1248, (R)-N-((S)-indolin-2-ylmethyl)-1-(naphthalen-1-yl)ethanamine] |  | 100 (≈ 331 µM) | 100 (≈ 331 µM) |  |  |  |  |  |  |  |
| O=[N+]([O-])c1cc[n+]([O-])cc1 [Compound 4-NPO, 4-nitropyridine-N-oxide, reference compound] |  | 25 (≈ 178 µM) | > 100 |  |  |  | 10 | slightly delayed the growth | reduction | reduction |
| C=C[C@H]1CN2CC[C@H]1C[C@H]2[C@H](O)c1ccnc2ccc(OC)cc12 [Compound 937] | hits | > 100 | > 100 | 15 |  |  |  |  |  |  |
| C[C@@H](NC[C@H]1Cc2ccccc2N1)c1cccc2ccccc12 [(R,R)-1248, (R)-N-((R)-indolin-2-ylmethyl)-1-(naphthalen-1-yl)ethanamine] |  | 100 (≈ 331 µM) | 100 (≈ 331 µM) | 10 |  |  |  |  |  |  |
| C[C@H](NC[C@H]1Cc2ccccc2N1)c1cccc2ccccc12 [(R,S)-1248, (S)-N-((R)-indolin-2-ylmethyl)-1-(naphthalen-1-yl)ethanamine] |  | 100 (≈ 331 µM) | 100 (≈ 331 µM) | 0 |  |  |  |  |  |  |
